Literature values as cited in patent US20070054964A1 (Wyeth, priority 2005, published 2007).

Key:
[1] = system: neuronal norepinephrine re-uptake
[2] = compared with ODV free base
[3] = compared with ODV free base; remark: listed apart in the source
[4] = oral administration, vs venlafaxine, ODV or other salts of ODV
[5] = target: H1-histaminergic receptors (Homo sapiens, UniProt P35367)
[6] = system: neuronal serotonin re-uptake
[7] = in vitro studies, Muth et al. 1991

Chain of H1-histaminergic receptors (P35367 whole entry): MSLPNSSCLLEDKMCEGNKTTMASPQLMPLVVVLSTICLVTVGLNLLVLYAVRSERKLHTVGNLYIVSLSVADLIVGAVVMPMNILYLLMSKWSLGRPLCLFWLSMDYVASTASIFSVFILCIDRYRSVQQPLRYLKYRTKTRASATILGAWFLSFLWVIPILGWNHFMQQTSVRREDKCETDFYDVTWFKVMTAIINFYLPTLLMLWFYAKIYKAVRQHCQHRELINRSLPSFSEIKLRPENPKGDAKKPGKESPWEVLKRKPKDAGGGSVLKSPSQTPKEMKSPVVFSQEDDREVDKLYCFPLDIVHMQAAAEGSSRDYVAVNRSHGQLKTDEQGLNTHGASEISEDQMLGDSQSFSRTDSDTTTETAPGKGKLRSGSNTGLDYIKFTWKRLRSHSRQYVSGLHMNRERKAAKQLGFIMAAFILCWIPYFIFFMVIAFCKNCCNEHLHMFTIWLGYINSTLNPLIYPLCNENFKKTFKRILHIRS

SMILES | inhibition of neuronal norepinephrine re-uptake [1] | inhibition of dopamine re-uptake (dopamine re-uptake) | affinity for α1-adrenergic receptors (α1-adrenergic receptors) | permeability [2] | bioavailability [3] | incidence of nausea, vomiting, diarrhea, abdominal pain, headache, vaso-vagal malaise, and/or trismus [4] | potency of norepinephrine re-uptake inhibition compared with venlafaxine [1, 7] | affinity for H1-histaminergic receptors [5] | solubility compared with venlafaxine | inhibition of neuronal serotonin re-uptake [6] | potency of serotonin re-uptake inhibition compared with venlafaxine [6, 7] | affinity for muscarinic receptors (muscarinic receptors)
COc1ccc(C(CN(C)C)C2(O)CCCCC2)cc1 (racemic) [Venlafaxine, (±)-1-[2-(dimethylamino)-1-(4-methoxyphenyl)ethyl]-cyclohexanol] | potent inhibitors | weak inhibitors | no significant affinity |  |  |  |  |  |  |  |  | 
CN(C)CC(c1ccc(O)cc1)C1(O)CCCCC1.O=C(O)CCC(=O)O (stereo not drawn) [ODV succinate] |  |  |  | improved | improved | lower incidence |  |  |  |  |  | 
CN(C)CC(c1ccc(O)cc1)C1(O)CCCCC1 (stereo not drawn) [ODV, 1-[2-(dimethyl-amino)-1-(4-phenyl)ethyl]-cyclohexanol] | potent inhibitors | weak inhibitors | no significant affinity |  |  |  | more potent inhibitor | no significant affinity | more soluble | potent inhibitors | more potent inhibitor | no significant affinity
